Ends that are not written are not given here.
What was measured:
hMSCs [1] = assay: Chondrocyte differentiation of hMSCs (Sox9, Aggrecan); assay type: cell-based, human; settings: 96 hours of culture
Description: (§1) The cells were first fixed for 20 min with 4% paraformaldehyde/PBS at 4° C. After fixation, the cells were permeabilized in PBS containing 1% Triton X-100 for 15 min. Runx2, Osterix, Stro-1, Vinculin, Phalloidin, Osteopontin, Sox2, Sox9 antibodies were visualized by treating the cells with 1% (v/v) specific monoclonal antibodies for 1 hour at 37° C. Then the samples were incubated with Alexa Fluor® 568 or 647 (F(ab′)2 fragment of IgG(H+L)) during 30 min at room temperature. The cell nuclei were counterstained in 20 ng/mL DAPI for 10 min at room temperature.
Total RNA was extracted by using the RNeasy Mini Kit (Qiagen) and […] RNA was used for cDNA synthesis with AMV kit (Invitrogen®) according to the manufacturer' instructions. Semi-quantitative reverse transcriptase-polymerase chain reaction (RT-PCR) was performed with Taq DNA Polymerase (Invitrogen®) in a thermocycler (Bio-Rad®). The cDNA input was normalized to […] (HPRT). The PCR products were analyzed on 2% agarose gels. For the Aggrecan gene, the PCR bands were densitometrically quantified by using the BioCapt software (Vilber). Values were normalized to HPRT, and results were reported as relative gene expression.
hMSCs were cultured on with and without GFR-binding compounds as defined herein (SEQ ID NO: 23 and 24). […]

Neurons = assay: Neuron growth (dendrite growth, GAP43 Q-PCR); assay type: cell-based
Description: (§2) Total RNA was extracted by using the RNeasy total RNA kit (Qiagen®) according to the manufacturer's instructions. Purified total RNA was used as a template in order to make cDNA by a reverse transcription reaction (Gibco BrI®) with random primers (Invitrogen®). The cDNA was then used as a template for a real-time PCR amplification in the presence of SYBR green reagents (Bio-Rad®) by using a thermocycler (iCycler, Biorad®). Data were analyzed with the iCycler IQ™® software and compared by the ΔΔCt method. Briefly, the mean Ct value of the target gene was normalized to its averaged Ct values of the housekeeping gene (HPRT) to give a ΔCt value, which was then normalized to a control sample to obtain a ΔΔCt value. The results were obtained from two series of experiments performed in a triplicate.
Neurons were cultured with and without GFR-binding compounds as defined herein (SEQ ID NO: 38). […] To further confirm this, the expression of the Growth Associated Protein 43 (GAP43) gene was verified for neuron cells cultured with neurogenic peptides (SEQ ID NO: 38).

[2] = Stability of non-covalent peptide coating on type-I collagen sponge (FITC fluorescence); assay type: physicochemical; settings: peptide bound to FITC, mixed with type-I collagen sponge; 3, 7 or 10 days
Description: (§3) Non-covalent modifications of the materials were performed in Air Atmosphere at room temperature. The non-covalent coating strategy consisted in using a mixture of inducing peptide (SEQ ID NO: 9; concentration of 1×10^−3M) with an apatite ceramics implant or a mixture of inducing peptide (SEQ ID NO: 10; concentration of 1×10^−3M) with a type-I collagen sponge. The non-covalently coated conventional materials were characterized by using fluorescent peptides (Here SEQ ID NO: 9 and 10 covalently bound to fluorescein isothiocyanate (FITC), FIG. 3). The results shown here in FIG. 3 were obtained from experiments performed with apatite ceramics and a type-I collagen sponge. […] Indeed, after 3, 7 or 10 days, the osteogenic peptides were still coated to the ceramics or the type-I collagen (FIG. 4). The biomaterial surface was characterized by X-ray photoelectron spectroscopy (Table 1). The X-ray photoelectron spectroscopy was performed as described in the Methods section.

[3] = tested on: Human umbilical-vein endothelial cells; assay: Endothelialization, CD31 adherens junctions; assay type: cell-based; settings: 36 hours of culture
Description: Human umbilical-vein endothelial cells were cultured with and without GFR-binding compounds as defined herein (SEQ ID NO: 26). An increase in the area of the adherent junctions (CD31) was observed after 36 hours of culture with GFR-binding compounds as defined herein (FIG. 10).

[4] = tested on: Human umbilical-vein endothelial cells; assay: Angiogenesis, tube-like structure formation; assay type: cell-based; settings: 18 hours of culture
Description: Human umbilical-vein endothelial cells were cultured with and without GFR-binding compounds as defined herein (SEQ ID NO: 27).

hMSCs [5] = assay: Alkaline phosphatase activity of hMSCs on peptide-coupled type-I collagen sponge; assay type: cell-based, human; settings: 1 week of culture on type-I collagen sponge
From the text: We observed an increase in the ALP activity after 1 week of culture on type-I collagen sponge coupled with GFR-binding compounds as defined herein (SEQ ID NO: 19) (FIG. 8b).

osteoblast progenitors = assay: Osteogenic differentiation of osteoblast progenitors on peptide-coated materials (Osteopontin staining, Runx2 Q-PCR); assay type: cell-based
Description: as §1, §2
The effect of these GFR-binding compounds as defined herein (SEQ ID NO: 19 and 20) on the differentiation of osteoblast progenitors was evaluated. These osteoblast progenitors were seeded onto the apatite ceramics or on type-I collagen sponge that were both coated with osteogenic peptides. […] This was seen from Osteopentin immunofluorescence staining after cell fixation as described in the Methods section (FIG. 7).
An increase in the Runx2 gene expression after 24 hours of culture (FIG. 8a) was observed by using Quantitative Real Time Polymerase Chain Reaction as described in the Methods section.

Human epithelial cells = assay: Scratch test, collective cell migration; assay type: cell-based; settings: 18 hours of culture
Description: Human epithelial cells were cultured with or without GFR-binding compounds as defined herein (SEQ ID NO: 28). A usual scratch test was applied (Nat Protoc 2: 329-333) on a monolayer of these epithelial cells in culture (FIG. 12a). An increase in the cell migration velocity for cells cultured with peptides was observed after 18 hours of culture. The cells migrated collectively and the communication between cells was maintained (FIG. 12b). In fact, the injury has been closed rapidly for the cells cultured with GFR-binding compounds as defined herein.

[6] = Stability of non-covalent peptide coating on apatite ceramics (FITC fluorescence); assay type: physicochemical; settings: peptide bound to FITC, coated on apatite ceramics; 3, 7 or 10 days
Description: as §3

In the case of “SEQ ID NO: 23: cyclic GFR-binding compound inducing cartilage regeneration; sequence not printed (VGRKPELEPLPIVYYVGRKPGGGGG; also: cyclic, ring type and places not given here)”, the “expression of the Sox9 protein” value (hMSCs [1]) is reported as “expression of the Sox9 protein was observed”.

In the case of “SEQ ID NO: 38: neurogenic peptide, cyclic GFR-binding compound; sequence not printed (SPISILYIDAANNGGGGGG; also: cyclic, ring type and places not given here)”, the “establishment of cell-cell contacts via dendrite growth” value (Neurons; 6 hours of culture) is reported as “rapid establishment of cell-cell contacts via dendrite growth” and the “expression of the Growth Associated Protein 43 (GAP43) gene” value (Neurons; 48 hours of culture, Q-PCR) is reported as “high level of expression”.

For “SEQ ID NO: 10: inducing peptide, cyclic GFR-binding compound of the sequence listing; mixed with type-I collagen sponge; sequence not printed (GTPGPGGGSAISTLYLIGKTPGGGGGG; also: cyclic, closure not given here)”, the “release of peptides over time” value [2] was “no significant release of peptides was observed over time”.

With “SEQ ID NO: 26: cyclic GFR-binding compound inducing endothelialization; sequence not printed (RSVKVAKVRIKPHQGQHGGGGGG; also: cyclic, ring type and places not given here)” the “area of the adherent junctions (CD31)” value [3] was “increase”.

With “SEQ ID NO: 27: vascular peptide, cyclic GFR-binding compound inducing angiogenesis; sequence not printed (SNITMQIMRIKPHQGGGGGG; also: cyclic, ring type and places not given here)” the “formation of tube-like structures” value [4] was “formation of tube-like structures was observed”.

In the case of “SEQ ID NO: 19: osteogenic cyclic GFR-binding compound of the sequence listing; sequence not printed (WWFWGGGSAISTLYLDEYDKGGGGGG; also: cyclic, closure not given here)”, the ALP activity (hMSCs [5]) is reported as “increase”, the “differentiation into mature osteoblasts” value (osteoblast progenitors; 48 hours on coated apatite ceramics or type-I collagen sponge) is reported as “differentiated into mature osteoblasts” and the “production of extracellular matrix proteins such as Osteopontin (OPN)” value (osteoblast progenitors; versus native type-I collagen sponge or native apatite ceramics) is reported as “produced extensive amounts of extracellular matrix proteins such as Osteopontin (OPN)”.

For “SEQ ID NO: 28: cyclic GFR-binding compound for wound healing; sequence not printed (EYVRKRPVQVRKIEYVRKGGGGGG; also: cyclic, ring type and places not given here)”, the cell migration velocity (Human epithelial cells) was “increase”.

For “SEQ ID NO: 9: inducing peptide, cyclic GFR-binding compound of the sequence listing; mixed with apatite ceramics; sequence not printed (WWFWGGGSAISTLYLIGKTPGGGGGG; also: cyclic, ring type and places not given here)”, the “release of peptides over time” value [6] was “no significant release of peptides was observed over time”.

In the case of “SEQ ID NO: 24: cyclic GFR-binding compound inducing cartilage regeneration; sequence not printed (EPLPIVYYVGRTPKVGGGGGG; also: cyclic, ring type and places not given here)”, the “expression of the Sox9 protein” value (hMSCs [1]) is reported as “expression of the Sox9 protein was observed”.

Source: patent US20190225651A1, “COMPOUNDS FOR INDUCING TISSUE FORMATION AND USES THEREOF” (HISTIDE AG, priority 2015, published 2019)
